According to US20060148030A1, “Nuclear receptor err y 3” (FUJISAWA PHARMACEUTICAL CO., LTD, priority 2002, published 2006):

T1: PPARβ (Homo sapiens, UniProt Q03181)
T1 construct: expressed in transfected cells; host or cells: CV-1 (African green monkey kidney)
T1 sequence (Q03181 1-441): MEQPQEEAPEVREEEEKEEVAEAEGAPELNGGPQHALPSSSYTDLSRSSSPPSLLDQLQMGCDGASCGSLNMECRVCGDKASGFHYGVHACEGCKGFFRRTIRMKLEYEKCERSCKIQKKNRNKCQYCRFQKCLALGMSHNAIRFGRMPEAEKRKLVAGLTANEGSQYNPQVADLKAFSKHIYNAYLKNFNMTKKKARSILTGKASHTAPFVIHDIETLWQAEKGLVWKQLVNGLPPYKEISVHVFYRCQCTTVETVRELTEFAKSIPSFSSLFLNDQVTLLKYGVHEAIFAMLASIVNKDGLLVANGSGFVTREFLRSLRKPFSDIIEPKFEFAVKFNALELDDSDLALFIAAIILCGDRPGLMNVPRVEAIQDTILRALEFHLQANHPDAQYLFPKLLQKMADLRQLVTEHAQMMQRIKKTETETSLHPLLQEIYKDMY
T1 sequence (P19793 1-462 partner): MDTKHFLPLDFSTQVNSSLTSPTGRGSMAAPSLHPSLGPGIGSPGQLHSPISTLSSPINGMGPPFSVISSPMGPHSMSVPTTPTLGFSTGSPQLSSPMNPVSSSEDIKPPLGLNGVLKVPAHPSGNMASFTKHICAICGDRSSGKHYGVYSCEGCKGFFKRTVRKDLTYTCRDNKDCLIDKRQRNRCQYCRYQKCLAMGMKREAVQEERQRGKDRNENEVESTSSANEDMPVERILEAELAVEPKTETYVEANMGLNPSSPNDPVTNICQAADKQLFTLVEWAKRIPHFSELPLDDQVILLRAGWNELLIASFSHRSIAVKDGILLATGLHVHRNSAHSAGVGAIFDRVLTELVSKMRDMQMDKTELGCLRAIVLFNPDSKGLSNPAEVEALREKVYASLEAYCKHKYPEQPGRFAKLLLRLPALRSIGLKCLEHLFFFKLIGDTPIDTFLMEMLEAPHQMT

B1: ERRγ3: novel ERRγ isoform, nuclear receptor protein of 396 amino acids (SEQ ID NO: 2) lacking part of the DNA binding domain (protein, listed as Homo sapiens)
chain: MSNKDRHIDSSCSSFIKTEPSSPASLTDSVNHHSPGGSSDASGSYSSTMNGHQNGLDSPPLYPSAPILGGSGPVRKLYDDCSSTIVEDPQTKCEYMLNSMPKRLCLVCGDIASGYHYGVASCEACKAFFKRTIQGVRLDRVRGGRQKYKRRIDAENSPYLNPQLAQPAKKPYNKIVSHLLVAEPEKIYAMPDPTVPDSDIKALTTLCDLADRELVVIIGWAKHIPGFSTLSLADQMSLLQSAWMEILILGVVYRSLSFEDELVYADDYIMDEDQSKLAGLLDLNNAILQLVKKYKSMKLEKEEFVTLKAIALANSDSMHIEDVEAVQKLQDVLHEALQDYEAGQHMEDPRRAGKMLMTLPLLRQTSTKAVQHFYNIKLEGKVPMHKLFLEMLEAKV

Legend:
[1] = system: ERRγ2; conditions: stated as known property; cited from earlier work
Chain of ERRγ2 (P62508 whole entry): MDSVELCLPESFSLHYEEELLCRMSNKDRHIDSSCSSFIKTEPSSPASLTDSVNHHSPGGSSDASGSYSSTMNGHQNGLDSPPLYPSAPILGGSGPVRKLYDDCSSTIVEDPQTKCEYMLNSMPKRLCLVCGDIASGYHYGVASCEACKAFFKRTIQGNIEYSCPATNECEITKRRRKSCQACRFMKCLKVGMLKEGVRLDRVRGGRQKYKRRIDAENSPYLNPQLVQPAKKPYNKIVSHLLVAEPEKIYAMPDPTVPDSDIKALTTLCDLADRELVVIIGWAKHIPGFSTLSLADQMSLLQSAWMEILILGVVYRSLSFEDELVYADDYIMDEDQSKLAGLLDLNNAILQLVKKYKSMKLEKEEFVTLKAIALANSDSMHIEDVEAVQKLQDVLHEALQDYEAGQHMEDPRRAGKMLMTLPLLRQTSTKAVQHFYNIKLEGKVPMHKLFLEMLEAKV

[2] = molecular target: T1, PPARβ; experiment: Reporter gene assay, ERRγ3 coexisted with PPARβ, pGVP2-PPRE1 in CV-1 cells; format: cell-based; conditions: 10^−5 M carbacyclin, FIG. 24
Experimental: Transfection was performed as follows: CV-1 cells were resuspended in DMEM supplemented with 10% fetal bovine serum, 2000 U/l of penicillin G, and 100 mg/l of streptomycin to a concentration of 2×10^5 cells/2.5 ml. This was then seeded to a 6-well plate at 2.5 ml per well, and incubated for 18-24 hours in a CO2 incubator at 37° C. and 5% CO2. 1 μg of each of the expression plasmids for the transcription factors, the luciferase reporter plasmid, and another luciferase reporter plasmid used for normalization of the measured values (pRL-TK), were dissolved in Opti-MEM (Gibco BRL), to a total of 150 μl. […] Luciferase activity was measured using the Dual-Luciferase™ Reporter Assay System (Promega). […] The protocol for measurement was as follows: 50 μl of Luciferase Assay Reagent II was added to each well, stirred for 0.3 seconds, and measured for one second. 50 μl of Stop&Glo™ Reagent was then added, stirred for 0.3 seconds, and measured for one second. The measured values for firefly luciferase activity were corrected by dividing by the value for the Renilla luciferase activity, the internal control. Average values and standard errors were calculated from triplicate samples.
The effect of ligands on the function of ERRγ3 in enhancing the transcriptional activation function of peroxisome proliferator activated receptor (PPAR) α, β, or γ was evaluated using the reporter gene assay (FIG. 24). […]

Molecule | binding to ERRγ2 [1] | modifying effect on the transcriptional stimulation activity of PPARβ [2]
4-hydroxytamoxifen [reference compound] | capable of binding | –
B1 | – | did not show any significant modifying effect
